According to ChEMBL document CHEMBL2074043, “Investigation of fractions present in the stem bark of Annickia kummeriae on their P-glycoprotein inhibitory pump activity” (Phytother Res, 2004):

Molecular target: ATP-dependent translocase ABCB1 (Homo sapiens, UniProt P08183)
Assay: TP_TRANSPORTER: increase in intracellular accumulation of rhodamine 6G in […] cell
Assay type: functional, cell-based

ATP-dependent translocase ABCB1, sequence (P08183 whole entry): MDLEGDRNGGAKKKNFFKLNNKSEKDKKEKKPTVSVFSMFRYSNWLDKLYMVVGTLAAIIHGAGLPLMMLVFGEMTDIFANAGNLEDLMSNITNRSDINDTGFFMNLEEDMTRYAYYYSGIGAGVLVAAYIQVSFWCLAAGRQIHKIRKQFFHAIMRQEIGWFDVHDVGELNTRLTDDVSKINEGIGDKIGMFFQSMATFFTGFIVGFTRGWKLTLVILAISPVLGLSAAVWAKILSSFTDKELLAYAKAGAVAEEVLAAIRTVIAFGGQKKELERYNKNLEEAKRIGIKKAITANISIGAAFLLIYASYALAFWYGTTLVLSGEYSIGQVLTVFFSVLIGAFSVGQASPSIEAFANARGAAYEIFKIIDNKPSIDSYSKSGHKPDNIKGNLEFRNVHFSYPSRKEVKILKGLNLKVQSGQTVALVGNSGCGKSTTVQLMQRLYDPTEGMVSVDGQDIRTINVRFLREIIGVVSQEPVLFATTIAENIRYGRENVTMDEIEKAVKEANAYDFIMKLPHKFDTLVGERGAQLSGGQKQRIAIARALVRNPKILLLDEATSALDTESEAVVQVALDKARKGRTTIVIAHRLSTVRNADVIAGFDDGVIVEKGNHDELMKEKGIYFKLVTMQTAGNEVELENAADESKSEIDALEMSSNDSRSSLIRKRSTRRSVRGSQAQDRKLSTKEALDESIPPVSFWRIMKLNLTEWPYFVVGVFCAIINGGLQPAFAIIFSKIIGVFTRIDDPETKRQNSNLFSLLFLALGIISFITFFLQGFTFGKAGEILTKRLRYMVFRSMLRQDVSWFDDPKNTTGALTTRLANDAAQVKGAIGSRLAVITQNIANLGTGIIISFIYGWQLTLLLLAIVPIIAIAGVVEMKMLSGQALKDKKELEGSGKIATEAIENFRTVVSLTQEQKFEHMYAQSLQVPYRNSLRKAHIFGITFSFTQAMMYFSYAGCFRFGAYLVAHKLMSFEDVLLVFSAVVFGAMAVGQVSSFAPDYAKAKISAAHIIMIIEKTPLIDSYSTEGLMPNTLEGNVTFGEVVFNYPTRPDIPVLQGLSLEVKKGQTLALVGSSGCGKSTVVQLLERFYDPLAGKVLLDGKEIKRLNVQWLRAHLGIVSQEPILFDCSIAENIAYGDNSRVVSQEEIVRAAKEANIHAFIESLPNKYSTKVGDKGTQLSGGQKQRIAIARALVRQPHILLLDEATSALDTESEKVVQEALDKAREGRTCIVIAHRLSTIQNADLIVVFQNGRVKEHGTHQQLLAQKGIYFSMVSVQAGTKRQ

With STEM BARK OF ANNICKIA KUMMERIAE EXTRACT the Activity was “inhibitor [+]”.
